Legend:
[1] = tested on: SHP-1^−/− B cells; assay: adoptive transfer of autoreactive SHP-1-/- Ars/A1 B cells, loss of anergy; type: in vivo, mouse
Excerpt: Except where otherwise indicated, 6-16 week old mice were used in all experiments. Both male and female mice were used, but experiments were sex matched and both sexes gave identical results, with the exception of only female mice being used in the VH125.NOD experiments as female mice develop accelerated disease. hCD20-TamCre animals (Khalil, et al. Science 336: 1178-81) were intercrossed with mice carrying the rosa26-flox-STOP-YFP allele (Srinivas, et al., BMC Dev. Biol. 1:4), generating mice in which YFP is expressed in B cells upon Cre activation. These mice were crossed with Ars/A1 (Benschop, et al., Immunity 14: 33-43) transgenic mice to generate hCD20-TamCre×rosa26-flox-STOP-YFP×Ars/A1 mice. B cells from these mice will be referred to as WT Ars/A1. These mice were also crossed with SHIP-1^flox/flox mice (Karlsson, et al. J Exp Med 198: 333-40). hCD20-TamCre×rosa26-flox-STOP-YFP×Ars/A1 mice were also crossed to PTEN^flox/flox mice (Anzelon, et al., Nat Immunol 4: 287-94) and SHP-1^flox/flox mice to generate mice in which SHIP-1, PTEN and SHP-1 deletion can be induced in anergic B cells. hCD20-TamCre×rosa26-flox-STOP-YFP×PTEN^flox/flox×Ars/A1 were crossed to hCD20-TamCre×rosa26-flox-STOP-YFP×SHIP-1^flox/flox×Ars/A1 to generate hCD20-TamCre×rosa26-flox-STOP-YFPx PTEN^flox/wt×SHIP-1^flox/wt×Ars/A1 to allow for the double haploinsufficiency of both PTEN and SHIP-1 within B cells.
(§1) 2 hours before adoptive transfer, C57BL/6 recipient mice received 200 rads irradiation. […] B cells from donor mice were isolated via depletion of CD43+ cells with anti-CD43-conjugated magnetic beads (MACS anti-mouse CD43; Miltenyi Biotec). Alternatively, CD4+ T cells were isolated via CD4 positive selection (MACS anti-mouse CD4 (L3T4) Miltenyi Biotec). Resultant populations were >97% pure based on flow cytometric analyses. Donor B cells were labeled with either CellTrace Violet (Molecular Probes) or CFSE (Molecular Probes) at 5 μM for 5 minutes at room temperature prior to transfer. Donor CD4 T cells were labeled with CFSE (Molecular Probes) at 5 μM for 5 minutes at room temperature prior to transfer. 1-2×10^6 donor cells in 200 μl PBS were adoptively transferred via IV injection. 24 hours post transfer, tamoxifen was administered to activate Cre. Tamoxifen (Sigma-Aldrich) was dissolved in 100% corn oil (Sigma-Aldrich) at 20 mg/ml. Recipient mice were injected IP with 100 μl (2 mg) on two consecutive days.
(§2) Diet dose (DD) is calculated by multiplying the single daily dose (SD) by the body weight of a mouse (BW) and dividing that by the daily food intake (FI) [DD=(SD×BW)/FI].
For VH125.NOD experiments animals are placed on control chow immediately after weaning.
Spleens were mechanically disrupted, single-cell suspensions were generated, and red blood cells were lysed with ammonium chloride TRIS. Cells were resuspended in PBS containing 1% FBS and incubated with indicated antibodies. For analysis of cell surface markers, antibodies against the following molecules were used: B220-PE (BioLegend), B220-BV786 (BD Biosciences), B220-BV510 (BioLegend), CD4-BV711 (BioLegend), CD8-BV421 (BioLegend), CD138-PECy7 (BioLegend), CD69-BV786 (BD Biosciences), CD86-PerCPCy5.5 (BioLegend). After cell surface staining, the cells were fixed and permeabilized with Cytofix/Cytoperm (BD) per manufacturer's instructions and stained with Dylight650-E4 anti-Ars/A1 idiotype (produced and conjugated in our laboratory) OR HEL-650 (produced and conjugated in our laboratory) and Alexa Fluor 488-anti-GFP (rabbit polyclonal; Life Technologies). Events were collected on a CyAn ADP (Dako) and subsequent analysis using FlowJo software (Tree Star).
For detection of IgM^a anti-Ars antibodies, microtiter plates were coated with 10 μg/ml Ars-BSA16 in PBS and blocked with 2 mg/ml BSA in PBS 0.05% Tween-20. For detection of IgM^a anti-HEL antibodies, microtiter plates were coated with 10 μg/ml HEL in PBS and blocked with 2 mg/ml BSA in PBS 0.05% Tween-20. […]

[2] = tested on: splenic B cells from C57BL/6 mice; assay: BCR-mediated calcium flux in B cells; type: cell-based, mouse; details: 15 nM, 60 nM and 490 nM idelalisib added simultaneously with anti-Ig heavy and light chain F(ab′)2
Description: For measurements of intracellular free calcium concentration ([Ca^2+]i), RBC-depleted single-cell suspended splenocytes were simultaneously stained with CD8-PE (BD Biosciences), CD4-APC (BioLegend) or B220-PE and loaded with Indo-1 acetoxymethyl (Molecular Probes), as described previously (Gauld, et al., Nat Immunol 6: 1160-1167). For analysis of ([Ca^2+]i), cells were suspended at 10×10^6 cells/ml in warm IMDM+2% FBS in a 500 ul volume. […] Mean relative ([Ca^2+]i) was monitored over time using an LSR Fortessa X-20 (BD) with analysis using FlowJo software.

[3] = tested on: OT-II CD4 T cells; assay: OT-II CD4 T cell adoptive transfer, response to OVA+P:IC immunization; type: in vivo, mouse; details: 0.9375 mg/kg chow vs vehicle control, five days post-immunization
Description: as §1, §2
For VH125.NOD experiments animals are placed on control chow immediately after weaning. […]

[4] = 0.9375 mg/kg or 3.75 mg/kg chow vs vehicle

CC[C@H](Nc1ncnc2nc[nH]c12)c1nc2cccc(F)c2c(=O)n1-c1ccccc1 [idelalisib, 5-fluoro-3-phenyl-2-[(1S)-1-(7H-purin-6-ylamino)propyl]-4(3H)-quinazolinone]
differentiation of SHP-1−/− B cells (plasmablasts) [1, 4]: equivalent amounts | proliferation of SHP-1−/− B cells [1, 4]: equivalent amounts | differentiation of SHP-1−/− B cells (plasmablasts) ([1]; 30 mg/kg chow): decreased | proliferation of SHP-1−/− B cells ([1]; 30 mg/kg chow): decreased | recovery of adoptively transferred SHP-1−/− B cells from the spleens (trend of reduced recovery) ([1]; animals receiving idelalisib-containing chow): not significant | autoimmunity (autoantibody, ASCs) ([1]; high dose (30 mg/kg chow)): blocked | loss of anergy caused by SHP-1 induced deficiency (autoantibody, ASCs) ([1]; low and intermediate dose (0.9375 and 3.75 mg/kg chow)): no effect | calcium mobilization [2]: suppressed | proliferation (CFSE) of OT-II T cells [3]: equivalent levels | upregulation of the activation marker CD44 on OT-II T cells [3]: equivalent levels
